Activity calls are given as the source filed them. The calls are words filed in the database; no cut-off is given here.
Tests used:
HUVEC [1] = test: Induction of cell cycle arrest in HUVEC assessed as accumulation at G2/M phase at 20 uM after 24 hrs by flow cytometry; type: functional, Homo sapiens
HUVEC [2] = test: Cytotoxicity against HUVEC after 72 hrs by MTT assay; type: cell-based; conditions: Homo sapiens
[3] = target: Somatostatin receptor type 5 (Homo sapiens, UniProt P35346); test: Binding affinity to human SSTR5
Chain of Somatostatin receptor type 5 (P35346 whole entry): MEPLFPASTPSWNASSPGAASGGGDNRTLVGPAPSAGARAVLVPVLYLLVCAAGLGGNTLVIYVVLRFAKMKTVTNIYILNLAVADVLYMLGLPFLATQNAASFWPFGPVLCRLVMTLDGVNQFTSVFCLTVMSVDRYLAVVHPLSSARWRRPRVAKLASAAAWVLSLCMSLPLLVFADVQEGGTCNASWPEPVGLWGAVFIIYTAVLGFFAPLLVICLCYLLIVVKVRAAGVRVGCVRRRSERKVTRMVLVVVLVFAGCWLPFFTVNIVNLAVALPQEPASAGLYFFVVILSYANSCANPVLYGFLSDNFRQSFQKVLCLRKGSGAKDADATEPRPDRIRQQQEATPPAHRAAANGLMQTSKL

HUVEC [4] = test: Induction of cell cycle arrest in HUVEC assessed as accumulation at S phase at 20 uM after 24 hrs by flow cytometry; type: functional, Homo sapiens
HUVEC [5] = test: Antiangiogenic activity in HUVEC assessed as partial inhibition of tube formation at 20 uM; type: functional, cell-based; conditions: Homo sapiens
Tubulin (Homo sapiens) = Tubulin (Homo sapiens) (UniProt P68371+Q9H4B7+P0DPH7+P68366+Q13509+Q71U36+P04350+Q3ZCM7+P07437+P68363+Q9BQE3+Q6PEY2+Q13885+Q9BVA1+Q9BUF5); test: Inhibition of tubulin polymerization in HUVEC at 20 uM by fluorescence staining; type: cell-based
[6] = target: Somatostatin receptor type 4 (Homo sapiens, UniProt P31391); test: Binding affinity to human SSTR4
Chain of Somatostatin receptor type 4 (P31391 whole entry): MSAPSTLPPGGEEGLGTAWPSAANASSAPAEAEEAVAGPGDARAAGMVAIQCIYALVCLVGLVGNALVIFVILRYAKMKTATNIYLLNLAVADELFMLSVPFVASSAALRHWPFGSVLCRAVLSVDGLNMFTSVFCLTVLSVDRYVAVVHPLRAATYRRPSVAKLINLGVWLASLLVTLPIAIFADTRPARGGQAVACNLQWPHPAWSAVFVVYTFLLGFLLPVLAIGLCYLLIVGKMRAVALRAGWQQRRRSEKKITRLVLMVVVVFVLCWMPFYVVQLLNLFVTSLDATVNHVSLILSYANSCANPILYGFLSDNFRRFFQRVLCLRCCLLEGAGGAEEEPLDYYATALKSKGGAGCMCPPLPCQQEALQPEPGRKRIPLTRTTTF

HUVEC [7] = test: Induction of apoptosis in HUVEC assessed as change in mitochondrial membrane potential at 10 to 20 uM after 48 hrs by JC1 staining; type: functional, cell-based; conditions: Homo sapiens
HUVEC [8] = test: Induction of cell cycle arrest in HUVEC assessed as accumulation at G1 phase at 20 uM after 24 hrs by flow cytometry; type: functional, Homo sapiens
HUVEC [9] = test: Antiangiogenic activity in HUVEC assessed as complete inhibition of tube formation at 40 uM; type: functional, cell-based; conditions: Homo sapiens
HUVEC [10] = test: Induction of apoptosis in HUVEC at 10 to 20 uM after 48 hrs by fluorescence assay; type: functional, cell-based; conditions: Homo sapiens
HUVEC [11] = test: Inhibition of HUVEC migration at 20 uM by scratch-wound healing assay; type: functional, cell-based; conditions: Homo sapiens

Ki [3]: 5 µM
inhibition (Tubulin (Homo sapiens)): Active
Ki [6]: 4.4 µM
Compound: NCCCCCOC[C@@H]1[C@@H](OCc2ccccc2)[C@H](OCc2ccccc2)[C@@H](OCc2ccccc2)CN1CCc1c[nH]c2ccccc12
Activity (HUVEC [1]): 16.27%
IC50 (HUVEC [2]): 12.6 µM
Activity (HUVEC [4]): 13.81%
inhibition (HUVEC [5]): Active
Activity (HUVEC [7]): Active
Activity (HUVEC [8]): 70.39%
inhibition (HUVEC [9]): Active
Activity (HUVEC [10]): Active
inhibition (HUVEC [11]): Active

— ChEMBL document CHEMBL1641483, “Biological study of a somatostatin mimetic based on the 1-deoxynojrimycin scaffold” (Bioorg Med Chem Lett, 2011)
